# Counter-ions that a name gives are not always drawn. Like-named read-outs stand apart in the source and are kept apart here.
# Key:
# ABCB1 [1] = target: T1, ABCB1 (Homo sapiens, UniProt P08183); experiment: Bidirectional transport of [^3H]-digoxin across Caco-2 monolayers
# Experimental: Caco-2 cells were seeded at a density of 3 × 10^5 cells per insert and cultured for 21 days in a standard cultivation medium containing 1% penicillin–streptomycin. The medium was changed every other day, during which the transepithelial electrical resistance (TEER) across the cell monolayers was measured using a Millicell-ERS instrument (Millipore Corporation, Bedford, MA, USA). […] For the bidirectional permeability assay, a Hanks’ balanced salt solution buffer was used. The pH in the A compartment was adjusted to 6.5 using a methanesulfonic acid solution, while that in the B compartment was adjusted to 7.4 using a HEPES solution [34, 80]. The volumes used were 0.5 mL and 1.5 mL in compartments A and B, respectively. To improve the reproducibility of the results, the receiver compartment always contained 1% bovine serum albumin, as previously recommended. […] Samples (200 µL) were collected after 1 and 2 h from the receiver compartment; after the first collection, fresh receiver solution was added to the receiver compartment to maintain the original volume. The concentration of [^3H]-digoxin was quantified using a Tri-Carb 2900TR liquid scintillation analyzer (Packard Bioscience, Meriden, CT, USA). Its concentration in the samples collected during Caco-2 experiments was measured after adding 1 mL of Ultima Gold^TM Cocktail. A to B and B to A transport were evaluated in terms of an apparent permeability coefficient (Papp), calculated using the equation in [80, 81]. […] The efflux ratio (rPapp) was then calculated using the equation [80, 82]:rPapp = (Papp B to A)/(Papp A to B)(2)
# ABCB1 [2] = target: T1, ABCB1; experiment: Ex vivo [^3H]-digoxin accumulation in hPCIS prepared from the jejunum
# Experimental: Ex vivo accumulation assays were performed as previously described. Directly after surgery, the resected part of the human jejunum was placed in cold (4 °C) Krebs–Henseleit buffer oxygenated with carbogen gas. The muscle layer was removed, and the remaining mucosa was cut into fragments measuring approximately 5 by 20 mm, which were then embedded in a 3% agarose solution (3% (wt/vol) in 0.9% NaCl, 37 °C). PCIS of approximately 300 µm thickness were cut using a Krumdieck tissue slicer (Alabama R&D, Munford, AL, USA). […] Both incubation steps were conducted in a humidified atmosphere of […] and 5% CO2 at 37 °C [32, 34, 35]. The accumulation of [^3H]-digoxin was stopped after 2 h of incubation by washing the slices twice in the Krebs–Henseleit cold buffer (4 °C). […] The samples were then centrifuged (10 min; 7800 g). Concentrations of [^3H]-digoxin in the supernatant samples (300 µL) were assessed after mixing them with 1.5 mL of Ultima Gold™ via scintillation counting (Tri-Carb 2900TR liquid scintillation analyzer, Packard Bioscience). The pellets obtained during centrifugation were dried overnight at 37 °C and then solubilized in 200 µL of 5 M NaOH for 24 h. Milli-Q water was then added to the samples to achieve a NaOH concentration of 1 M. The protein content was measured using a bicinchoninic acid protein kit (Thermo Fisher Scientific, Waltham, MA, USA). The measured [^3H]-digoxin concentrations were normalized against the protein content.
# ABCB1 [3] = target: T1, ABCB1; parameters: confirming the functional expression of ABCB1 in the Caco-2 cells; host or cells: Caco-2; method as in PMID 31481446; details: Caco-2, cited from earlier work
# ABCB1 [4] = target: T1, ABCB1; parameters: confirming the functional expression of ABCB1 in the Caco-2 cells; host or cells: Caco-2; method as in PMID 31481446; details: hPCIS, cited from earlier work
# Solubility = format: physicochemical; details: incubation medium, 0.1% DMSO
# Experimental: The stock solutions were stored at −20 °C before use. The final concentration of DMSO was 0.1% in all experiments. The final concentrations of EtOH in hPCIS and Caco-2 cells were 0.03% and 0.012%, respectively.
# ABCB1 [5] = test system: ABCB1; parameters: method as in PMID 23132334; details: apparent activity at 100 µM; cited from earlier work
# [6] = cited from earlier work
# ABCB1 [7] = details: suggested; cited from earlier work
# T1 sequence (P08183 whole entry): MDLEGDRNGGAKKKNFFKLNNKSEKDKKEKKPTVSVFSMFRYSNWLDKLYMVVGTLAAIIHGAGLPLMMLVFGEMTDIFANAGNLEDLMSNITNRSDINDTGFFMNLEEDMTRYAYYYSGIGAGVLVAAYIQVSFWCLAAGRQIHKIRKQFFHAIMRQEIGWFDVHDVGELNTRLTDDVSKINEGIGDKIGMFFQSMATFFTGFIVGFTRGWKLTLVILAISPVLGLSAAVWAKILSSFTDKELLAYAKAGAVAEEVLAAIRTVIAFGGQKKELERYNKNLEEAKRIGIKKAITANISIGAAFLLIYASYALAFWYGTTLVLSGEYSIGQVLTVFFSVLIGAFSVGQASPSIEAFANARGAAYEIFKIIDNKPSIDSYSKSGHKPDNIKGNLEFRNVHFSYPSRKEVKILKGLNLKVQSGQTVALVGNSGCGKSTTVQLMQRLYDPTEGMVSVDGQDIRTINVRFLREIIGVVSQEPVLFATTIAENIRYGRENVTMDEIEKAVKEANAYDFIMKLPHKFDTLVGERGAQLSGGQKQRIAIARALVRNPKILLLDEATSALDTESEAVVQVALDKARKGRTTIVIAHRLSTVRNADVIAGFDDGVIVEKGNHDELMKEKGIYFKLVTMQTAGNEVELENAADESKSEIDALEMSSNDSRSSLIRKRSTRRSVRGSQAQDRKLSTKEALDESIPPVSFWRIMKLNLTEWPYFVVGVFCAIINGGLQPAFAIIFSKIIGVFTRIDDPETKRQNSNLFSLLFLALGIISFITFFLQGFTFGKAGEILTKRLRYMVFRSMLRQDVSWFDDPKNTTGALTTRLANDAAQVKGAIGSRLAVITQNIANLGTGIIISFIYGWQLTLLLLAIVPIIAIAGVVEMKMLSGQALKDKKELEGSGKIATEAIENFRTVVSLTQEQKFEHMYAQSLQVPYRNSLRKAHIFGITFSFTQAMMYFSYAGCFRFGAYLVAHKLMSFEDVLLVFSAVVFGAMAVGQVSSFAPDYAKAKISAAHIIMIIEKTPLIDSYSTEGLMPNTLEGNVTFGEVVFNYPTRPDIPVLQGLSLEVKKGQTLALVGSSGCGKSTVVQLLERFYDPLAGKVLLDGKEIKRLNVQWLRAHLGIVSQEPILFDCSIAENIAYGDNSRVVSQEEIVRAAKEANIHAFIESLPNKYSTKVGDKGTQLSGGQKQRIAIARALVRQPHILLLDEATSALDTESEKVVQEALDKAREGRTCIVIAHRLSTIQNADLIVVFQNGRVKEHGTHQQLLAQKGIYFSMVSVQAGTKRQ
compound,measurement,setting,value
"Nc1nc(NC2CC2)c2ncn([C@H]3C=C[C@@H](CO)C3)c2n1 [Abacavir, abacavir]","Digoxin Inhibition (bidirectional transport, in words)",ABCB1 [1]; compound 100 µM,No significant effect
same,Digoxin Inhibition in human PCIS (in words),"ABCB1 [2]; compound 100 µM, hPCIS",did not induce any detectable inhibition
"COC(=O)N[C@H](C(=O)N[C@@H](Cc1ccccc1)[C@@H](O)CN(Cc1ccc(-c2ccccn2)cc1)NC(=O)[C@@H](NC(=O)OC)C(C)(C)C)C(C)(C)C [Atazanavir, atazanavir]","Digoxin Inhibition (bidirectional transport, in words)",ABCB1 [1]; compound 50 µM,YES
same,Digoxin Inhibition in human PCIS (in words),"ABCB1 [2]; compound 20 µM, hPCIS",did not inhibit
same,Digoxin Inhibition in human PCIS (in words),"ABCB1 [2]; compound 50 µM, hPCIS",YES
same,RHD123 Inhibition (bidirectional transport),ABCB1 [3]; compound 50 µM,YES
same,RHD123 Inhibition in human PCIS,ABCB1 [4]; compound 50 µM,YES
"COC(=O)N[C@H](C(=O)N1CCC[C@H]1c1nc(-c2ccc(-c3ccc(-c4c[nH]c([C@@H]5CCCN5C(=O)[C@@H](NC(=O)OC)C(C)C)n4)cc3)cc2)c[nH]1)C(C)C [Daclatasvir, daclatasvir]",Digoxin Inhibition in human PCIS (in words),"ABCB1 [2]; compound 20 µM, hPCIS",YES
same,RHD123 Inhibition (bidirectional transport),ABCB1 [3]; compound 20 µM,YES
"CC(C)CN(C[C@@H](O)[C@H](Cc1ccccc1)NC(=O)O[C@H]1CO[C@H]2OCC[C@H]21)S(=O)(=O)c1ccc(N)cc1 [Darunavir, darunavir]",Digoxin Inhibition in human PCIS (in words),"ABCB1 [2]; compound 50 µM, hPCIS",did not inhibit
"C[C@H]1O[C@@H](O[C@H]2[C@@H](O)C[C@H](O[C@H]3[C@@H](O)C[C@H](O[C@H]4CC[C@@]5(C)[C@H](CC[C@@H]6[C@@H]5C[C@@H](O)[C@]5(C)[C@@H](C7=CC(=O)OC7)CC[C@]65O)C4)O[C@@H]3C)O[C@@H]2C)C[C@H](O)[C@@H]1O [Digoxin, digoxin]","efflux ratio at 2 h, 6 nM",ABCB1 [1]; human,9.53 ± 2.22
"C[C@@H]1CCO[C@H]2Cn3cc(C(=O)NCc4ccc(F)cc4F)c(=O)c(O)c3C(=O)N12 [Dolutegravir, dolutegravir]","Digoxin Inhibition (bidirectional transport, in words)",ABCB1 [1]; compound 10 µM,No significant effect
same,Digoxin Inhibition in human PCIS (in words),"ABCB1 [2]; compound 10 µM, hPCIS",did not induce any detectable inhibition
same,Solubility (in words),Solubility,limited solubility
same,Inhibition of digoxin transport in MDCK-ABCB1 cells,ABCB1 [5],weak inhibitor
"COC(=O)N[C@H](C(=O)N1CCC[C@H]1c1nc(-c2ccc3c(c2)O[C@@H](c2ccccc2)n2c-3cc3cc(-c4c[nH]c([C@@H]5CCCN5C(=O)[C@@H](NC(=O)OC)C(C)C)n4)ccc32)c[nH]1)C(C)C [Elbasvir, elbasvir]",Digoxin Inhibition in human PCIS (in words),"ABCB1 [2]; compound 5 µM, hPCIS",no inhibition
same,Solubility (in words),Solubility,low solubility
same,Increase in plasma AUC (intestinal ABCB1 inhibition),[6]; humans,11%
"Cc1cc(C#N)cc(C)c1Oc1nc(Nc2ccc(C#N)cc2)nc(N)c1Br [Etravirine, etravirine]","Digoxin Inhibition (bidirectional transport, in words)",ABCB1 [1]; compound 20 µM,YES
same,Digoxin Inhibition in human PCIS (in words),"ABCB1 [2]; compound 20 µM, hPCIS",did not inhibit
same,Solubility (in words),Solubility,low solubility
"C=C[C@@H]1C[C@]1(NC(=O)[C@@H]1C[C@@H]2CN1C(=O)[C@H](C(C)(C)C)NC(=O)O[C@@H]1C[C@H]1CCCCCc1nc3ccc(OC)cc3nc1O2)C(=O)NS(=O)(=O)C1CC1.O [Grazoprevir, grazoprevir]",Digoxin Inhibition in human PCIS (in words),ABCB1 [2],increased [^3H]-digoxin uptake
"COC(=O)N[C@H](C(=O)N1CC2(CC2)C[C@H]1c1ncc(-c2ccc3c(c2)C(F)(F)c2cc(-c4ccc5nc([C@@H]6[C@H]7CC[C@H](C7)N6C(=O)[C@@H](NC(=O)OC)C(C)C)[nH]c5c4)ccc2-3)[nH]1)C(C)C [Ledipasvir, ledipasvir]","Digoxin Inhibition (bidirectional transport, in words)",ABCB1 [1]; compound 50 µM,YES
same,Digoxin Inhibition in human PCIS (in words),"ABCB1 [2]; compound 20 µM, hPCIS",no inhibition
same,Digoxin Inhibition in human PCIS (in words),"ABCB1 [2]; compound 50 µM, hPCIS",no inhibition
same,Solubility (in words),Solubility,low solubility
same,RHD123 Inhibition (bidirectional transport),ABCB1 [3]; compound 50 µM,YES
"Cc1cccc(C)c1OCC(=O)N[C@@H](Cc1ccccc1)[C@@H](O)C[C@H](Cc1ccccc1)NC(=O)[C@H](C(C)C)N1CCCNC1=O [Lopinavir, lopinavir]",Digoxin Inhibition in human PCIS (in words),"ABCB1 [2]; compound 20 µM, hPCIS",did not induce any detectable inhibition
same,Digoxin Inhibition in human PCIS (in words),"ABCB1 [2]; compound 50 µM, hPCIS",YES
same,RHD123 Inhibition in human PCIS,ABCB1 [4]; compound 50 µM,YES
"Cc1cc(/C=C/C#N)cc(C)c1Nc1ccnc(Nc2ccc(C#N)cc2)n1 [Rilpivirine, rilpivirine]","Digoxin Inhibition (bidirectional transport, in words)",ABCB1 [1]; compound 20 µM,YES
same,Digoxin Inhibition in human PCIS (in words),"ABCB1 [2]; compound 20 µM, hPCIS",did not inhibit
same,Effect on the pharmacokinetics of digoxin or tenofovir DF in vivo,[6]; dose of 25 mg/day,does not significantly affect
"CC(C)(C)NC(=O)[C@@H]1C[C@@H]2CCCC[C@@H]2CN1C[C@@H](O)[C@H](Cc1ccccc1)NC(=O)[C@H](CC(N)=O)NC(=O)c1ccc2ccccc2n1 [Saquinavir, saquinavir]","Digoxin Inhibition (bidirectional transport, in words)",ABCB1 [1]; compound 20 µM,YES
same,Digoxin Inhibition in human PCIS (in words),"ABCB1 [2]; compound 5 µM, hPCIS",did not induce any detectable inhibition
same,Digoxin Inhibition in human PCIS (in words),"ABCB1 [2]; compound 20 µM, hPCIS",YES
same,RHD123 Inhibition (bidirectional transport),ABCB1 [3]; compound 20 µM,YES
same,RHD123 Inhibition in human PCIS,ABCB1 [4]; compound 20 µM,YES
"CC(C)OC(=O)[C@H](C)N[P@](=O)(OC[C@H]1O[C@@H](n2ccc(=O)[nH]c2=O)[C@](C)(F)[C@@H]1O)Oc1ccccc1 [Sofosbuvir, sofosbuvir]",Digoxin Inhibition in human PCIS (in words),ABCB1 [2],no effect
"CC(C)OC(=O)OCOP(=O)(CO[C@H](C)Cn1cnc2c(N)ncnc21)OCOC(=O)OC(C)C [Tenofovir DF, tenofovir disoproxil fumarate]",Digoxin Inhibition in human PCIS (in words),"ABCB1 [2]; compound 100 µM, hPCIS",did not induce any detectable inhibition
"COC[C@H]1C[C@@H](c2ncc(-c3ccc4c(c3)COc3cc5c(ccc6nc([C@@H]7CC[C@H](C)N7C(=O)[C@@H](NC(=O)OC)C(C)C)[nH]c65)cc3-4)[nH]2)N(C(=O)[C@H](NC(=O)OC)c2ccccc2)C1 [Velpatasvir, velpatasvir]","Digoxin Inhibition (bidirectional transport, in words)",ABCB1 [1]; compound 5 µM,No significant effect
same,Solubility (in words),Solubility,limited solubility
same,IC50,ABCB1 [7],~20.6 µM
same,Increase of digoxin exposure,[6]; healthy volunteers,34%
"Cc1cn([C@H]2C[C@H](N=[N+]=[N-])[C@@H](CO)O2)c(=O)[nH]c1=O [Zidovudine, zidovudine]","Digoxin Inhibition (bidirectional transport, in words)",ABCB1 [1]; compound 100 µM,No significant effect
same,Digoxin Inhibition in human PCIS (in words),"ABCB1 [2]; compound 100 µM, hPCIS",did not induce any detectable inhibition
maraviroc,"Digoxin Inhibition (bidirectional transport, in words)",ABCB1 [1]; compound 100 µM,No significant effect
same,Digoxin Inhibition in human PCIS (in words),"ABCB1 [2]; compound 100 µM, hPCIS",did not induce any detectable inhibition
same,RHD123 Inhibition (bidirectional transport),ABCB1 [3]; compound 100 µM,YES
